Measured values: PubChem BioAssay AID342 (DTP/NCI, 2004)
“And” between values parts separate entries of the source, which are not always exact repeats. Identical values can stand only once.

Test system: Swiss mice, Sarcoma 180 sc, mean tumor weight T/C
Test: NCI In Vivo Anticancer Drug Screen. Data for tumor model Sarcoma 180 (subcutaneous) in Swiss mice
Settings: endpoint: mean tumor weight, higher = larger tumour
Protocol: The antitumor activity of compounds was measured in mice bearing transplantable tumors. Survival or tumor size were measured and the results are expressed as the measurement made in the treated group (T) divided by the measurement made in the vehicle treated control group (C). The tumor model used in this assay is Sarcoma 180 (subcutaneous) in Swiss mice

[1] = dose: 15.5 mg/kg/injection, schedule: Q#A X014 (ip), vehicle: saline
[2] = dose: 23.5 mg/kg/injection, schedule: Q#A X014 (ip), vehicle: saline
[3] = dose: 25.0 mg/kg/injection, schedule: Q01DX007 (ip), vehicle: saline
[4] = dose: 50.0 mg/kg/injection, schedule: Q01DX007 (ip), vehicle: saline
[5] = dose: 100.0 mg/kg/injection, schedule: Q01DX007 (ip), vehicle: saline
[6] = dose: 222.0 mg/kg/injection, schedule: Q01DX007 (ip), vehicle: other
[7] = dose: 333.0 mg/kg/injection, schedule: Q01DX007 (ip), vehicle: other
[8] = dose: 500.0 mg/kg/injection, schedule: Q01DX007 (ip), vehicle: other
[9] = dose: 750.0 mg/kg/injection, schedule: Q01DX007 (ip), vehicle: other

CC1CN1P(=O)(N1CCCC1)N1CC1C (stereo not given)
T/C [1]: 27 % of control and 48 % of control
T/C [2]: 4 % of control
T/C (dose: 31.0 mg/kg/injection, schedule: Q01DX007 (ip), vehicle: saline): 77 % of control
T/C (dose: 47.0 mg/kg/injection, schedule: Q01DX007 (ip), vehicle: saline): 100 % of control
T/C (dose: 70.0 mg/kg/injection, schedule: Q01DX007 (ip), vehicle: saline): 50 % of control

CN1CCc2cc3c(cc2C(=O)Cc2ccc4c(c2C1)OCO4)OCO3
T/C (dose: 1.56 mg/kg/injection, schedule: Q01DX007 (ip), vehicle: saline): 109 % of control
T/C (dose: 3.13 mg/kg/injection, schedule: Q01DX007 (ip), vehicle: saline): 69 % of control
T/C (dose: 6.25 mg/kg/injection, schedule: Q01DX007 (ip), vehicle: saline): 119 % of control
T/C [3]: 60 % of control
T/C [4]: 64 % of control
T/C (dose: 62.0 mg/kg/injection, schedule: Q01DX007 (ip), vehicle: carboxymethylcellulose (CMC)): 79 % of control
T/C [5]: 80 % of control

CC1(c2ccccc2)O[C@@H]2C[C@H]3[C@@H]4CCC5=CC(=O)C=C[C@]5(C)[C@@]4(F)[C@@H](O)C[C@]3(C)[C@]2(C(=O)CO)O1 (stereo not given in full)
T/C (dose: 1.2 mg/kg/injection, schedule: Q01DX007 (sc), vehicle: steriod suspending solution): 72 % of control
T/C (dose: 1.7 mg/kg/injection, schedule: Q#A X014 (sc), vehicle: steriod suspending solution): 70 % of control
T/C (dose: 2.5 mg/kg/injection, schedule: Q01DX007 (sc), vehicle: steriod suspending solution): 70 % of control
T/C (dose: 2.6 mg/kg/injection, schedule: Q#A X014 (sc), vehicle: steriod suspending solution): 32 % of control
T/C (dose: 5.0 mg/kg/injection, schedule: Q01DX007 (sc), vehicle: steriod suspending solution): 52 % of control
T/C (dose: 6.0 mg/kg/injection, schedule: Q01DX007 (sc), vehicle: steriod suspending solution): 63 % of control
T/C (dose: 39.0 mg/kg/injection, schedule: Q01DX007 (sc), vehicle: steriod suspending solution): 28 % of control
T/C (dose: 50.0 mg/kg/injection, schedule: Q01DX007 (sc), vehicle: steriod suspending solution): 14 % of control
T/C (dose: 60.0 mg/kg/injection, schedule: Q01DX007 (sc), vehicle: steriod suspending solution): 33 % of control
T/C (dose: 100.0 mg/kg/injection, schedule: Q01DX007 (sc), vehicle: steriod suspending solution): 7 % of control

Nc1nc(Cl)ncc1F
T/C [3]: 101 % of control
T/C [4]: 83 % of control
T/C [5]: 92 % of control

CCN(CC)P(=S)(N1CC1)N1CC1
T/C (dose: 25.0 mg/kg/injection, schedule: Q01DX007 (ip), vehicle: other): 3 % of control
T/C (dose: 50.0 mg/kg/injection, schedule: Q01DX007 (ip), vehicle: other): 31 % of control
T/C (dose: 100.0 mg/kg/injection, schedule: Q01DX007 (ip), vehicle: other): 1 % of control
T/C (dose: 220.0 mg/kg/injection, schedule: Q01DX007 (ip), vehicle: saline): 25 % of control

O=C(Nc1ccc2c(c1)Cc1cccc(NC(=O)C(Cl)Cl)c1-2)C(Cl)Cl
T/C (dose: 222.0 mg/kg/injection, schedule: Q01DX007 (ip), vehicle: carboxymethylcellulose (CMC)): 76 % of control
T/C (dose: 222.0 mg/kg/injection, schedule: Q01DX007 (ip), vehicle: methylcellulose (MC)): 46 % of control
T/C [6]: 52 % of control
T/C (dose: 333.0 mg/kg/injection, schedule: Q01DX007 (ip), vehicle: carboxymethylcellulose (CMC)): 70 % of control and 90 % of control
T/C (dose: 333.0 mg/kg/injection, schedule: Q01DX007 (ip), vehicle: methylcellulose (MC)): 69 % of control
T/C [7]: 81 % of control
T/C (dose: 500.0 mg/kg/injection, schedule: Q01DX007 (ip), vehicle: carboxymethylcellulose (CMC)): 48 % of control and 58 % of control
T/C (dose: 500.0 mg/kg/injection, schedule: Q01DX007 (ip), vehicle: methylcellulose (MC)): 87 % of control
T/C [8]: 122 % of control
T/C (dose: 750.0 mg/kg/injection, schedule: Q01DX007 (ip), vehicle: carboxymethylcellulose (CMC)): 48 % of control
T/C (dose: 750.0 mg/kg/injection, schedule: Q01DX007 (ip), vehicle: methylcellulose (MC)): 46 % of control
T/C [9]: 89 % of control

Cc1ccc(S(=O)(=O)N=S2CCCC2)cc1
T/C (dose: 111.0 mg/kg/injection, schedule: Q#A X014 (ip), vehicle: water): 90 % of control
T/C (dose: 166.5 mg/kg/injection, schedule: Q#A X014 (ip), vehicle: water): 107 % of control
T/C (dose: 250.0 mg/kg/injection, schedule: Q#A X014 (ip), vehicle: water): 91 % of control
T/C (dose: 375.0 mg/kg/injection, schedule: Q#A X014 (ip), vehicle: water): 66 % of control

NNC(=O)c1ccncc1
T/C (dose: 7.5 mg/kg/injection, schedule: Q#A X014 (ip), vehicle: carboxymethylcellulose (CMC)): 112 % of control
T/C (dose: 15.0 mg/kg/injection, schedule: Q#A X014 (ip), vehicle: carboxymethylcellulose (CMC)): 105 % of control
T/C (dose: 30.0 mg/kg/injection, schedule: Q#A X014 (ip), vehicle: carboxymethylcellulose (CMC)): 101 % of control
T/C (dose: 60.0 mg/kg/injection, schedule: Q#A X014 (ip), vehicle: carboxymethylcellulose (CMC)): 74 % of control

Nc1ncnc2nc[nH]c12
T/C [3]: 104 % of control
T/C [4]: 87 % of control
T/C [5]: 119 % of control
T/C (dose: 200.0 mg/kg/injection, schedule: Q01DX007 (ip), vehicle: saline): 57 % of control

Clc1ccccc1/C=C/C=C1c2ccccc2-c2ccccc21
T/C [6]: 72 % of control
T/C (dose: 222.0 mg/kg/injection, schedule: Q01DX007 (ip), vehicle: saline): 83 % of control
T/C [7]: 78 % of control
T/C (dose: 333.0 mg/kg/injection, schedule: Q01DX007 (ip), vehicle: saline): 95 % of control
T/C (dose: 492.0 mg/kg/injection, schedule: Q01DX007 (ip), vehicle: saline): 56 % of control
T/C [8]: 50 % of control
T/C (dose: 500.0 mg/kg/injection, schedule: Q01DX007 (ip), vehicle: saline): 79 % of control
T/C [9]: 49 % of control
T/C (dose: 1119.0 mg/kg/injection, schedule: Q01DX007 (ip), vehicle: saline): 58 % of control
T/C (dose: 1679.0 mg/kg/injection, schedule: Q01DX007 (ip), vehicle: saline): 54 % of control

CO[C@H](C(=O)[C@@H](O)[C@@H](C)O)[C@@H]1Cc2cc3cc(OC4CC(OC5CC(O)C(O)C(C)O5)C(O)C(C)O4)c(C)c(O)c3c(O)c2C(=O)[C@H]1OC1CC(OC2CC(OC3CC(C)(O)C(O)C(C)O3)C(O)C(C)O2)C(O)C(C)O1 (stereo not given in full)
T/C (dose: 0.25 mg/kg/injection, schedule: Q01DX007 (ip), vehicle: water): 72 % of control
T/C (dose: 0.3 mg/kg/injection, schedule: Q01DX007 (ip), vehicle: water): 50 % of control
T/C (dose: 0.3 mg/kg/injection, schedule: Q02DX004 (ip), vehicle: water): 74 % of control
T/C (dose: 0.45 mg/kg/injection, schedule: Q01DX007 (ip), vehicle: water): 45 % of control
T/C (dose: 0.45 mg/kg/injection, schedule: Q02DX004 (ip), vehicle: water): 80 % of control
T/C (dose: 0.5 mg/kg/injection, schedule: Q01DX007 (ip), vehicle: water): 57 % of control
T/C (dose: 0.6 mg/kg/injection, schedule: Q02DX004 (ip), vehicle: water): 47 % of control
T/C (dose: 1.0 mg/kg/injection, schedule: Q01DX007 (ip), vehicle: water): 102 % of control
T/C (dose: 1.0 mg/kg/injection, schedule: Q02DX004 (ip), vehicle: water): 80 % of control
T/C (dose: 2.0 mg/kg/injection, schedule: Q01DX007 (ip), vehicle: water): 72 % of control
T/C (dose: 2.0 mg/kg/injection, schedule: Q02DX004 (ip), vehicle: water): 67 % of control
T/C (dose: 3.0 mg/kg/injection, schedule: Q02DX004 (ip), vehicle: water): 50 % of control
T/C (dose: 4.0 mg/kg/injection, schedule: Q02DX004 (ip), vehicle: water): 60 % of control
T/C (dose: 5.0 mg/kg/injection, schedule: Q02DX004 (ip), vehicle: water): 50 % of control

CCCCN(C)N=Nc1ccc(OCC(=O)OCC)cc1
T/C (dose: 7.0 mg/kg/injection, schedule: Q01DX007 (ip), vehicle: saline): 111 % of control
T/C (dose: 10.0 mg/kg/injection, schedule: Q01DX007 (ip), vehicle: saline): 93 % of control
T/C (dose: 15.0 mg/kg/injection, schedule: Q01DX007 (ip), vehicle: saline): 111 % of control
T/C (dose: 23.0 mg/kg/injection, schedule: Q01DX007 (ip), vehicle: saline): 95 % of control

CCCCNP(=O)(N1CC1C)N1CC1C (stereo not given)
T/C (dose: 7.0 mg/kg/injection, schedule: Q#A X014 (ip), vehicle: saline): 64 % of control
T/C (dose: 10.5 mg/kg/injection, schedule: Q#A X014 (ip), vehicle: saline): 62 % of control
T/C [1]: 50 % of control
T/C [2]: 39 % of control
